{
  "source": "patent US20180140637A1",
  "about": "“EPIDERMAL NEURAL CREST STEM CELLS AS A SOURCE OF SCHWANN CELLS” (priority 2015, published 2018)",
  "key": {"SAPK2/p38": {"biological_target": "SAPK2/p38 (Homo sapiens, UniProt Q16539)", "sequence (Q16539 whole entry)": "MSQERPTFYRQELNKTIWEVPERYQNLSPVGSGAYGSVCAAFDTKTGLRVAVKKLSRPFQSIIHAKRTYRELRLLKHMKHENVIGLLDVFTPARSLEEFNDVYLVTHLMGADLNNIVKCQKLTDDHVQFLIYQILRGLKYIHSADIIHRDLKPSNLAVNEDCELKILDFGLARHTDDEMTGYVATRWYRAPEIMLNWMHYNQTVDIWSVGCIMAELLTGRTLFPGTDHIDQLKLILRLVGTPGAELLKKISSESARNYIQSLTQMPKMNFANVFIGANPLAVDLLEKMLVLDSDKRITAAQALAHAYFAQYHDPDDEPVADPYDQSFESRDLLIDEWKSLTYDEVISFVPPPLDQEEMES", "conditions": "inhibitor of CK1 and ALK5; cited from earlier work"}, "hEPI-NCSC": {"tested_on": "hEPI-NCSC", "experiment": "Differentiation of hEPI-NCSC into Schwann cells", "format": "cell-based, human", "description": "hEPI-NCSC were seeded at 2,500-5,000 cells per CELLstart™-coated 35-mm culture plate and cultured at 36.8° C., 5% CO2 and 5% O2. At differentiation Day minus 3 (D-3), cells were placed in XP medium, which is NeuroCult XF medium (Stem Cell Technologies, Grenoble, France Cat# 05761) supplemented with 10 ng/ml rhFGF2 (R&D Systems, Abingdon, UK Cat# 233-FB), 20 ng/ml rhEGF (R&D Systems Cat# 236-EG), 1× ITS+3 (Sigma, Poole, UK Cat# 1-2771), 1% (v/v) FBS (HyClone, Thermo Fisher, Cramlington, UK Cat# SH30070.02), 1× GlutaMAX (Invitrogen, Cat# 35050-038), 1× Penicillin/Streptomycin (Sigma Cat# P0781) and 2.5 μg/ml Amphotericin B (Sigma Cat# A2942).\nThe cells in XP medium were treated with 500 ng/ml recombinant human sonic hedgehog (C2411) N-terminus (rhSHH) and 500 nM CHIR99021 for two days. At differentiation Day −1, the cells were subcultured. Cells were detached with TrypLE Select, centrifuged, and plated in XP medium at a density of 30,000 cells per 35 mm culture plate and 1,000 cells per poly-D-lysine and laminin-coated 13-mm diameter glass coverslip. The next day (differentiation Day 0), cells were cultured in Alpha-modified MEM in the presence of 10% FBS and 1 mM β-mercaptoethanol (βME) for 24 hours, which was followed by treatment with 35 ng/ml all-trans-retinoic acid according to the method of Dezawa et al (2001). At differentiation Day 3, the FBS concentration was reduced to 1%. Starting at differentiation Day 0, 10 μM SB431542 was added to the culture medium. Retinoic acid and SB431542 remained in the culture medium throughout the culture period. At Day 3, 10 ng/ml rhFGF2, 5 ng/ml recombinant human PDGF-BB (rhPDGF-BB), 5 μM forskolin, 200 ng/ml recombinant human neuregulin-1 (rhNRG) were added to the culture medium. The culture medium was exchanged every 48 hours.\nAt Day 0 of differentiation, cells were treated for 24 hours with β-mercaptoethanol, and all-trans-retinoic acid was added on differentiation Day 1 according to the method of Dezawa et al (2001). Neither the three-day treatment with retinoic acid, nor five days of exposure to retinoic acid were sufficient for differentiating hEPI-NCSC into Schwann cells as judged by cell morphology and marker expression. […] At Day 0, SB431542, an inhibitor of transforming growth factor-beta 1 (TGFβ1) activin receptor-like kinases (ALKs), was also added to the culture medium (FIG. 1). […] On Day 3, FGF2, PDGF-BB, forskolin, and neuregulin-1 were added."}, "[1]": {"tested_on": "large diameter sensory neurons", "experiment": "Neuronal toxicity in DRG explants", "format": "cell-based, rodent", "description": "(§1) Mice ([C57BL/6-TgN(ACTbEGFP)]Osb]; ‘green mice’) (Okabe et al, 1997) and rats were handled in accordance to protocols approved by the Animal Care Committee of Newcastle University (project licence 60/3876). Whole mount DRG explants from E15.5 Wistar rat embryos were dissected as described by Päiväläinen et al. (2008) and Liu et al. (2011). Dissociated DRG cultures from adult ‘green’ mice were prepared according to Malin et al (2007) and Johnson et al (2001). To remove non-neuronal cells, DRG explants were treated with camptothecin (20 μM) three times for 48 hours each, on Days 2-5, 6-8, and 13-15.\n(§2) Co-cultures of hEPI-NCSC derived Schwann cells and rodent dorsal root ganglia (DRG) explants were prepared by first treating the DRG explants with camptothecin to eliminate non-neuronal cells. […] Neuronal toxicity of camptothecin has been documented previously (Bhanu and Kondapi, 2010)."}, "[2]": {"tested_on": "endogenous Schwann cells (non-neuronal cells) of dorsal root ganglia (DRG) explants", "experiment": "Removal of non-neuronal cells from DRG explants", "format": "cell-based, rodent", "conditions": "for removal of endogenous Schwann cells from DRG explants: rodent DRG explants, camptothecin 20 μM three times for 48 hours each, data not shown", "description": "as §1, §2\nAnti-human nuclear antibody immunofluorescence confirmed that all P-zero immunoreactive Schwann cells were of human origin (FIG. 7A-7C; pale blue fluorescence in original)."}},
  "data": [
    {"smiles": "NC(=O)c1ccc(-c2nc(-c3ccc4c(c3)OCCO4)c(-c3ccccn3)[nH]2)cc1", "note": "[D 4476, 4-[4-(2,3-Dihydro-1,4-benzodioxin-6-yl)-5-(2-pyridinyl)-1H-imidazol-2-yl]benzamide]", "values": [
      {"measurement": "selectivity over SAPK2/p38", "setting": "SAPK2/p38", "result": "greater than 20 fold"}
    ]},
    {"smiles": "CC1=C(/C=C/C(C)=C/C=C/C(C)=C/C(=O)O)C(C)(C)CCC1", "note": "[Retinoic acid, all-trans-retinoic acid]", "values": [
      {"measurement": "deleterious effects to the cells", "setting": "hEPI-NCSC; 35 ng/ml in the differentiation medium throughout the culture period", "result": "without any detectable deleterious effects to the cells"},
      {"measurement": "Schwann cell differentiation, judged by cell morphology and marker expression", "setting": "hEPI-NCSC; retinoic acid treatment for 3 days", "result": "not conducive to highly efficient Schwann cell differentiation"},
      {"measurement": "Schwann cell differentiation, judged by cell morphology and marker expression", "setting": "hEPI-NCSC; retinoic acid treatment for 5 days (data not shown)", "result": "not conducive to highly efficient Schwann cell differentiation"}
    ]},
    {"smiles": "NC(=O)c1ccc(-c2nc(-c3ccc4c(c3)OCO4)c(-c3ccccn3)[nH]2)cc1", "note": "[SB 431542, 4-[4-(1,3-benzodioxol-5-yl)-5-(2-pyridinyl)-1H-imidazol-2-yl]benzamide]", "values": [
      {"measurement": "effect on differentiation into Schwann cells", "setting": "hEPI-NCSC; 10 μM throughout the differentiation period", "result": "facilitated differentiation"}
    ]},
    {"smiles": "CC[C@@]1(O)C(=O)OCc2c1cc1n(c2=O)Cc2cc3ccccc3nc2-1", "note": "[camptothecin]", "values": [
      {"measurement": "toxicity to sensory neurons", "setting": "[1]", "result": "selectively toxic to large diameter sensory neurons"},
      {"measurement": "removal of endogenous Schwann cells from DRG explants", "setting": "[2]", "result": "efficiently removed endogenous Schwann cells"},
      {"measurement": "non-neuronal cells in treated DRG explants", "setting": "[2]; whole DRG explants from E15.5 rat embryos, camptothecin 20 μM", "result": "clear of non-neuronal cells"}
    ]},
    {"smiles": "Nc1ccn([C@@H]2O[C@H](CO)[C@@H](O)[C@@H]2O)c(=O)n1", "note": "[cytosine arabinoside]", "values": [
      {"measurement": "removal of endogenous Schwann cells from DRG explants", "setting": "[2]", "result": "did not"}
    ]}
  ]
}
